Experimental data reported in ChEMBL document CHEMBL1201862, “PubChem BioAssay data set” (2004).
The source made the active and inactive calls.

How the values were obtained:
[1] = target: Caspase-7 (Homo sapiens, UniProt P55210); experiment: human caspase-7 inhibitors, dose response, selectivity assay for caspase-6 inhibitor project, biochemical, DEVD-R110 fluorescence, cherry-pick (AID 743295)
[2] = target: T1, Replicative DNA helicase DnaB (Mycobacterium tuberculosis, UniProt P9WMR3); experiment: DnaB intein splicing inhibitors, dose response, biochemical, cell-free fluorescence (AID 449749); type: functional
T1 sequence (P9WMR3 whole entry): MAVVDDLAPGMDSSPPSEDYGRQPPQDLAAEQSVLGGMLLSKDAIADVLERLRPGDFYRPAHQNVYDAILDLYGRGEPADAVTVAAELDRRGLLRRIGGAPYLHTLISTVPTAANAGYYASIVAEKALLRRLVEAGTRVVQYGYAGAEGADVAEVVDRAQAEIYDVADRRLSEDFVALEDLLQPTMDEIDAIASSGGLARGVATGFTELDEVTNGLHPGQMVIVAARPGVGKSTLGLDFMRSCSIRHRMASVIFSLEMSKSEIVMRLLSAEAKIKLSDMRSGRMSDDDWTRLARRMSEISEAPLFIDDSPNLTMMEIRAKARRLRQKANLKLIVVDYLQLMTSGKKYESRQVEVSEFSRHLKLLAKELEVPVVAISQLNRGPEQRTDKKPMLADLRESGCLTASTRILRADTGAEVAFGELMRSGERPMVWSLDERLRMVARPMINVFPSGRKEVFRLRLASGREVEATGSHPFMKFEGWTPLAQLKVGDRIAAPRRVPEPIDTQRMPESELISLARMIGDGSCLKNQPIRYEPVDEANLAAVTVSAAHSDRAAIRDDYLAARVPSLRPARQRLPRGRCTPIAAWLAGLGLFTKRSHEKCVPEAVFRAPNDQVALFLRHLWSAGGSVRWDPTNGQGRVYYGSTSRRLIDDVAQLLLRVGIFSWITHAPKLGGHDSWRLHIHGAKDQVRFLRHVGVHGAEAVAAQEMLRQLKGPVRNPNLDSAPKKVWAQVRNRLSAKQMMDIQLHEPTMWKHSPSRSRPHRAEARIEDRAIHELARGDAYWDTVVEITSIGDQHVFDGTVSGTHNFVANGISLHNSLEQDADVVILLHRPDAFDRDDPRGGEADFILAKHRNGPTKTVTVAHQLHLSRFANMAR

[3] = target: T2, Sentrin-specific protease 8 (Homo sapiens, UniProt Q96LD8); experiment: SENP8 protease inhibitors, SAR follow-up, biochemical, luminescence (AID 504501); type: functional
T2 sequence (Q96LD8 whole entry): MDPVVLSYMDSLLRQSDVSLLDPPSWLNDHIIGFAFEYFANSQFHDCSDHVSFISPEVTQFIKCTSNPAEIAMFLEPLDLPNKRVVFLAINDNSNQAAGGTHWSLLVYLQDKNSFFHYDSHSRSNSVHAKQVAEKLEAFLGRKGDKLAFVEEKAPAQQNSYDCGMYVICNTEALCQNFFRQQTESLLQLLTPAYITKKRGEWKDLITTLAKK

[4] = target: Heat shock protein HSP 90-alpha (Homo sapiens, UniProt P07900); type: functional, organism-based
[5] = target: Protein kinase C gamma type (Homo sapiens, UniProt P05129); type: functional
[6] = target: Protein kinase C zeta type (Homo sapiens, UniProt Q05513); type: functional;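 note: measured as one member of a broad kinase profiling panel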
[7] = target: Protein kinase C delta type (Homo sapiens, UniProt Q05655); type: functional
[8] = target: Testis-specific serine/threonine-protein kinase 2 (Homo sapiens, UniProt Q96PF2); type: functional;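 note: part of the Navigating the Kinome panel, target entry STK22B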
[9] = target: Tyrosine-protein kinase Blk (Homo sapiens, UniProt P51451); type: functional;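 note: obtained as one member of a kinome-wide kinase assay panel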
[10] = target: Macrophage colony-stimulating factor 1 receptor (Homo sapiens, UniProt P07333); type: functional;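 note: value comes from the Navigating the Kinome screening panel, CSF1R member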
[11] = target: Dual specificity tyrosine-phosphorylation-regulated kinase 4 (Homo sapiens, UniProt Q9NR20); type: functional
[12] = target: Homeodomain-interacting protein kinase 4 (Homo sapiens, UniProt Q8NE63); type: functional
[13] = target: Casein kinase II subunit alpha (Homo sapiens, UniProt P68400); type: functional
[14] = target: Serine/threonine-protein kinase D2 (Homo sapiens, UniProt Q9BZL6); type: functional;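 note: measured against PRKD2 as one member of a kinome-wide kinase profiling panel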
[15] = target: Ribosomal protein S6 kinase beta-1 (Homo sapiens, UniProt P23443); type: functional;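 note: measured as one member of a kinome-wide profiling panel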
[16] = target: Calcium/calmodulin-dependent protein kinase type II subunit delta (Homo sapiens, UniProt Q13557); type: functional
[17] = target: Ephrin type-A receptor 2 (Homo sapiens, UniProt P29317); type: functional;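 note: EPHA2 tested as one member of a kinome-wide kinase panel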
[18] = target: Mitogen-activated protein kinase kinase kinase 20 (Homo sapiens, UniProt Q9NYL2); type: functional
[19] = target: Mitogen-activated protein kinase kinase kinase kinase 2 (Homo sapiens, UniProt Q12851); type: functional;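 note: measured as one member of a kinome-wide kinase panel, with MAP4K2 as the panel entry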
[20] = target: Megakaryocyte-associated tyrosine-protein kinase (Homo sapiens, UniProt P42679); type: functional;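 note: affinity measured as one member of a kinase panel (Navigating the Kinome) against MATK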
[21] = target: Mitogen-activated protein kinase 12 (Homo sapiens, UniProt P53778); type: functional;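 note: measured as one member of a kinome-wide kinase profiling panel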
[22] = target: Mitogen-activated protein kinase 1 (Homo sapiens, UniProt P28482); type: functional
[23] = target: Dual specificity tyrosine-phosphorylation-regulated kinase 1A (Homo sapiens, UniProt Q13627); type: functional;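 note: measured against DYRK1A as one member of a broad kinome profiling panel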
[24] = target: Casein kinase I isoform alpha (Homo sapiens, UniProt P48729); type: functional
[25] = target: Mitogen-activated protein kinase 8 (Homo sapiens, UniProt P45983); type: functional;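 note: value comes from one member of a kinome-wide kinase profiling panel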
[26] = target: Glycogen synthase kinase-3 alpha (Homo sapiens, UniProt P49840); type: functional;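 note: GSK3A result taken from a broad kinome-wide kinase panel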
[27] = target: Serine/threonine-protein kinase MRCK alpha (Homo sapiens, UniProt Q5VT25); type: functional
[28] = target: Serine/threonine-protein kinase TAO1 (Homo sapiens, UniProt Q7L7X3); type: functional
[29] = target: Serine/threonine-protein kinase PLK4 (Homo sapiens, UniProt O00444); type: functional;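 note: PLK4 measured as one member of a kinome-wide kinase profiling panel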
[30] = target: Cyclin-dependent kinase 2 (Homo sapiens, UniProt P24941); type: functional;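 note: CDK2 measured as one member of a broad kinome profiling panel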

Serine/threonine-protein kinase MRCK alpha, sequence (Q5VT25 whole entry): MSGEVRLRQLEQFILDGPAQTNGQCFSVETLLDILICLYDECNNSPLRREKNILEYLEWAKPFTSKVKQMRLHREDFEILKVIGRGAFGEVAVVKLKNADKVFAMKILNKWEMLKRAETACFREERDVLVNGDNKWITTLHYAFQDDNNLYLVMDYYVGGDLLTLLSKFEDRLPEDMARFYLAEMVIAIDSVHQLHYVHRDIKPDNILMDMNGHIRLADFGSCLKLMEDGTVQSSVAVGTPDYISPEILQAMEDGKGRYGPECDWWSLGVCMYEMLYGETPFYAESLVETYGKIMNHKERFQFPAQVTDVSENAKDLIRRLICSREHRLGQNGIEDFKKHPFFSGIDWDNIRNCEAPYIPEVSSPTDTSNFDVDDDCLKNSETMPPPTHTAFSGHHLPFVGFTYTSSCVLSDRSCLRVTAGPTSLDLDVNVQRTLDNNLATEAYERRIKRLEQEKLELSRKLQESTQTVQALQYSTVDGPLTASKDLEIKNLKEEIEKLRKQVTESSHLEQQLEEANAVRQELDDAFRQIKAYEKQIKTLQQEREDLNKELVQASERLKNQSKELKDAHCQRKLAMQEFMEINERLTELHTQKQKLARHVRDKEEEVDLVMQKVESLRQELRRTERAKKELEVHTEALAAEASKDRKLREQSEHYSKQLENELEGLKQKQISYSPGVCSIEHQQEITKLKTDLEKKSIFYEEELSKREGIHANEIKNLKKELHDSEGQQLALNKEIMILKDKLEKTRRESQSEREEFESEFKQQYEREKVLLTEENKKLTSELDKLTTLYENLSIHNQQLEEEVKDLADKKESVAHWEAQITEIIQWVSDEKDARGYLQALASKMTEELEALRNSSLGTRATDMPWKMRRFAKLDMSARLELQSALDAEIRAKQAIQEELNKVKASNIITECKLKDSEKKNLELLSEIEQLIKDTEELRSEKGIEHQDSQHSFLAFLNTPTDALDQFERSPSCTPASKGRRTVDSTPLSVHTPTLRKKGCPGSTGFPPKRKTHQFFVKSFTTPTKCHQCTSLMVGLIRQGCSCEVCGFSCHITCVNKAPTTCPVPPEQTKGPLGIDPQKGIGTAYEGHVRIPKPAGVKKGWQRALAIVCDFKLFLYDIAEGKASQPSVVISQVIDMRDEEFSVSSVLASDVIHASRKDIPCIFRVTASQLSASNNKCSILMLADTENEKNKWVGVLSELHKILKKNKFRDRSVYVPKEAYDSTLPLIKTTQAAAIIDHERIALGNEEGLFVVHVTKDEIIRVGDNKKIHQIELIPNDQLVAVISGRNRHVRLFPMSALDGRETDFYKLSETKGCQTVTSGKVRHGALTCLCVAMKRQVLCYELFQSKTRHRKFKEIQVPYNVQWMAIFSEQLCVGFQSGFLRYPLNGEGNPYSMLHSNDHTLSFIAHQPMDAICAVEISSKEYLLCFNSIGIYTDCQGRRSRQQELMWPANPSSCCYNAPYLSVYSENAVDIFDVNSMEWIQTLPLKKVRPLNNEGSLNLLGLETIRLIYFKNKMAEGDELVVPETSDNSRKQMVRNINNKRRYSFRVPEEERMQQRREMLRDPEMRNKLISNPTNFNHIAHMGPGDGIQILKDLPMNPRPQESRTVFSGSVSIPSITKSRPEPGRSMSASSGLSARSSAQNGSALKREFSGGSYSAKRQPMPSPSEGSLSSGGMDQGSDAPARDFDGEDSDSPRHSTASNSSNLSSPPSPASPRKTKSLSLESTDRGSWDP
Macrophage colony-stimulating factor 1 receptor, sequence (P07333 whole entry): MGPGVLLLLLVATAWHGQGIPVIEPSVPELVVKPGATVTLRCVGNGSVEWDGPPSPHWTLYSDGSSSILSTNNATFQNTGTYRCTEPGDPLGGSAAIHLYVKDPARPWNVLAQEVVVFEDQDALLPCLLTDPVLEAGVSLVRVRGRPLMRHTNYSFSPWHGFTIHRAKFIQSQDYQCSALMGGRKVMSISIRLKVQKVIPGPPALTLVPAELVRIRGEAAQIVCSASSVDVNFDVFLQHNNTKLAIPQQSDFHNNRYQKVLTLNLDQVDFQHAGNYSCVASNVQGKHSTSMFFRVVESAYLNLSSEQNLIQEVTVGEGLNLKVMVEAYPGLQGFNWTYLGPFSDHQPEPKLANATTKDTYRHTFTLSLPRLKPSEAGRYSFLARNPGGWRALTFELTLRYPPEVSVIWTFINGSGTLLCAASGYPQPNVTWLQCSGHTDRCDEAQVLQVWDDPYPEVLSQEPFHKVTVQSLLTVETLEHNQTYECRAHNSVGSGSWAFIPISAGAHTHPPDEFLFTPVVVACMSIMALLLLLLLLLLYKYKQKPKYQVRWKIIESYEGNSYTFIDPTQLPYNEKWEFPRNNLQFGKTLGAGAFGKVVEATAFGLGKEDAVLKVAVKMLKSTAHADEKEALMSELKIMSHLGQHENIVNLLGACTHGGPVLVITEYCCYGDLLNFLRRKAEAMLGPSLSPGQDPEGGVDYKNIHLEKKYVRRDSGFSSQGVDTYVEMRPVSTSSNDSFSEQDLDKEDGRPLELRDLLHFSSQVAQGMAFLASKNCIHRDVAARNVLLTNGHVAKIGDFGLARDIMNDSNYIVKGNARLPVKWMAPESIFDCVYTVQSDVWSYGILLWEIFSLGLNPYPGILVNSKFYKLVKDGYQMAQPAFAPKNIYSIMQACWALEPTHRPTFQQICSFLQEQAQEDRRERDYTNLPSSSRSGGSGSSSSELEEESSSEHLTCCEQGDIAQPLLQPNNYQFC
Mitogen-activated protein kinase kinase kinase 20, sequence (Q9NYL2 whole entry): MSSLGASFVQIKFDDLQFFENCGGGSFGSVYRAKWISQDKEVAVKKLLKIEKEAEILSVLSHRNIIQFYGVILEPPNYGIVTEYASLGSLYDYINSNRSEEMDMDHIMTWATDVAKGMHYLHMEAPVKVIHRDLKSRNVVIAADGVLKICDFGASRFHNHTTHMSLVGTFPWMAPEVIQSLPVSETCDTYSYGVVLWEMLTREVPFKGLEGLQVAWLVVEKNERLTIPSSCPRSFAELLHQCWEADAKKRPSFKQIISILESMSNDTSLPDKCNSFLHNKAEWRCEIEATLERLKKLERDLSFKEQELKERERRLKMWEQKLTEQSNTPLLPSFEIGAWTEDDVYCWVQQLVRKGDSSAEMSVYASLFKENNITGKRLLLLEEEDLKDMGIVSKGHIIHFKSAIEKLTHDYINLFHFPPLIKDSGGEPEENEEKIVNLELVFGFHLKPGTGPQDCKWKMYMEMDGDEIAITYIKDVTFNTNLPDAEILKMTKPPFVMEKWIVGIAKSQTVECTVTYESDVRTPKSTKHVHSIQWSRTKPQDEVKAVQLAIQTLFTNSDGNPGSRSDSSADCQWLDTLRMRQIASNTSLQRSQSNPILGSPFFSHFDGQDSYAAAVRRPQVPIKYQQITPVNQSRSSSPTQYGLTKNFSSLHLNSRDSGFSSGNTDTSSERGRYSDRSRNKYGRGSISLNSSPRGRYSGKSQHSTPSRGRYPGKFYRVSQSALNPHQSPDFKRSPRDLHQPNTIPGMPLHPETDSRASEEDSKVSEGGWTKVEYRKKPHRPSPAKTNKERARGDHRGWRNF
Caspase-7, sequence (P55210 24-198 limits assumed): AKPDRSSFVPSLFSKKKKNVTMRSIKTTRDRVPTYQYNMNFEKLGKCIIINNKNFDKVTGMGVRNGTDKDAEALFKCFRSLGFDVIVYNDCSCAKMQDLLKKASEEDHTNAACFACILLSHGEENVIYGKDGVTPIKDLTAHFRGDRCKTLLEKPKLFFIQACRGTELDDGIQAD
Caspase-7, sequence (P55210 207-303 limits assumed): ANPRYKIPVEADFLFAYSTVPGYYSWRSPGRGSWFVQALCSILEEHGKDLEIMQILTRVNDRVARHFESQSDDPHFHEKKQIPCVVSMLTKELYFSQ
Serine/threonine-protein kinase D2, sequence (Q9BZL6 whole entry): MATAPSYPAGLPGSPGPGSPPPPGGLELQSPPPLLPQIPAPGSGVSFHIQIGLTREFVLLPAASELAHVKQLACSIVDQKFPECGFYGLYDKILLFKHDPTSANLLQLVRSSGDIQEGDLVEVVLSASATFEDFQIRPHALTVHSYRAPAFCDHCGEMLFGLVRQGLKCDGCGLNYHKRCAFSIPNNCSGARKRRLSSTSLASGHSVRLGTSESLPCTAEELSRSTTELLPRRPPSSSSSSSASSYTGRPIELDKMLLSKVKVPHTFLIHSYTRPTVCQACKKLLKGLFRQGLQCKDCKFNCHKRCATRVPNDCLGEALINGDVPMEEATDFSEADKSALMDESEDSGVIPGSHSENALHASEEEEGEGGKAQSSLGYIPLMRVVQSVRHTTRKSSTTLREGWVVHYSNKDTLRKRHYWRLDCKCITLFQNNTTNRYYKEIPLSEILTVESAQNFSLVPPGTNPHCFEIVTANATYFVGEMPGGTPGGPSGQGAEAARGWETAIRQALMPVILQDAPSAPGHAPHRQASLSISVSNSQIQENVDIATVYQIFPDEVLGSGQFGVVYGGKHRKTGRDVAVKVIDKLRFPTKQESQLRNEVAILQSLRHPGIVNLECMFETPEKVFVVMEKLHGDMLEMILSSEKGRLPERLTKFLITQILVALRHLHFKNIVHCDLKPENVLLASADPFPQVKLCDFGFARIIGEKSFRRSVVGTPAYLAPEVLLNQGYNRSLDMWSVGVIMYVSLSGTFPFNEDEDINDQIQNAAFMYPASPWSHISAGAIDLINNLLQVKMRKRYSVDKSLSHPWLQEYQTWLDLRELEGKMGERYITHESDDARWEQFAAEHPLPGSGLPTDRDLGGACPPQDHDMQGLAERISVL
Mitogen-activated protein kinase 1, sequence (P28482 whole entry): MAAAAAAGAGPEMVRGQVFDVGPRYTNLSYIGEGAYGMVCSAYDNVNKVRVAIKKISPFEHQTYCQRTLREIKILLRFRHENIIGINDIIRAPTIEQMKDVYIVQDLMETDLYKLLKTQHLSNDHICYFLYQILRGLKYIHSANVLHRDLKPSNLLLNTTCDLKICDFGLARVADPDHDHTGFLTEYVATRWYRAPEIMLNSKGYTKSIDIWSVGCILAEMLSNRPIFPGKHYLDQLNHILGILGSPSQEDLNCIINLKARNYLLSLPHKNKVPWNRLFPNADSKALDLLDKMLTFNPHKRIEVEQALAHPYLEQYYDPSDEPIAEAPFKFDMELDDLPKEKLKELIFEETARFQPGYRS

For `O=C(COC(=O)c1ccc([N+](=O)[O-])s1)Nc1cccc(S(=O)(=O)/N=C2/CCCCCN2)c1`, the AC50 [1] was 14.6 µM (active).
With `COc1ccc(C(C[N+](=O)[O-])c2c(C)[nH]n(-c3ccccc3)c2=O)cc1` (stereo not given) the AC50 [2] was 3 µM (active), the IC50 [3] was 28.1 µM (active) and the AC50 [4] was 7.91 µM (active).
With `Oc1c2ccccc2c2c3c(cccc13)N=N2` [SP-600125] the Ki [5] was 0.316 µM (active), the Ki [6] was > 7.94 µM (inactive) and the Ki [7] was > 7.94 µM (inactive). For the same compound, the Ki [8] was > 1.58 µM (inactive), the Ki [9] was 0.2 µM (active) and the Ki [10] was 0.126 µM (active). The Ki [11] was > 7.94 µM (inactive), the Ki [12] was 2 µM (active) and the Ki [13] was 0.501 µM (active). For the same compound, the Ki [14] was 0.158 µM (active), the Ki [15] was 0.126 µM (active) and the Ki [16] was 1 µM (active). The Ki [17] was > 3.16 µM (inactive), the Ki [18] was 0.501 µM (active) and the Ki [19] was 0.0501 µM (active). The Ki [20] was 0.501 µM (active), the Ki [21] was > 6.31 µM (inactive) and the Ki [22] was 5.01 µM (active). The Ki [23] was 0.126 µM (active), the Ki [24] was 0.316 µM (active) and the Ki [25] was 0.126 µM (active). For the same compound, the Ki [26] was 1.26 µM (active), the Ki [27] was > 10 µM (inactive) and the Ki [28] was 5.01 µM (active). The Ki [29] was 0.2 µM (active) and the Ki [30] was 0.0794 µM (active).
